Measured values as given in patent publication US4481149A, “Fluorine-containing phenyl benzoate compounds, and their production and use” (Daikin Kogyo Co., Ltd., priority 1978, dated 1984).

Assay: Temperature range of liquid crystal (MR)
Format: physicochemical
Settings: Table 1

| SMILES | Temperature (MR) Range of liquid crystal |
| --- | --- |
| CCCCCCOc1ccc(C(=O)Oc2ccc(C(F)(F)F)cc2)cc1 [Example 8, p'-trifluoromethylphenyl p-n-hexyloxybenzoate] | 74.7-76.5 °C |
| CCCCCCCCOc1ccc(C(=O)Oc2ccc(C(F)(F)F)cc2)cc1 [Example 10, p'-trifluoromethylphenyl p-n-octyloxybenzoate] | 62.5-72.5 °C |
| CCCCCCCOc1ccc(C(=O)Oc2ccc(C(F)(F)F)cc2)cc1 [Example 9, p'-trifluoromethylphenyl p-n-heptyloxybenzoate] | 62.9-74.3 °C |
| N#Cc1ccc(OC(=O)c2ccc(C(F)(F)C(F)(F)C(F)(F)C(F)(F)C(F)(C(F)(F)F)C(F)(F)F)cc2)cc1 [Example 13] | 109.6-121.3 °C |
| N#Cc1ccc(OC(=O)c2ccc(C(F)(F)C(F)(F)C(F)(F)C(F)(F)C(F)(F)C(F)(F)F)cc2)cc1 [Example 15] | 99.8-123.3 °C |
| N#Cc1ccc(OC(=O)c2ccc(C(F)(F)C(F)(F)C(F)(C(F)(F)F)C(F)(F)F)cc2)cc1 [Example 12, p'-Cyanophenyl p-(3-trifluoromethylperfluorobutyl)benzoate] | 90.0-98.5 °C |
| N#Cc1ccc(OC(=O)c2ccc(C(F)(F)C(F)(F)C(F)(F)C(F)(F)C(F)(F)C(F)(F)C(F)(F)C(F)(F)F)cc2)cc1 [Example 16] | 118-145 °C |
| O=C(Oc1ccc([N+](=O)[O-])cc1)c1ccc(C(F)(F)C(F)(F)C(F)(C(F)(F)F)C(F)(F)F)cc1 [Example 20] | 68.6-79.2 °C |
| N#Cc1ccc(OC(=O)c2ccc(C(F)(F)C(F)(F)C(F)(F)C(F)(F)C(F)(F)C(F)(F)C(F)(C(F)(F)F)C(F)(F)F)cc2)cc1 [Example 14] | 130.7-140.7 °C |

Same assay, conditions: Table 1; monotropic

| SMILES | Temperature (MR) Range of liquid crystal |
| --- | --- |
| CCCCCc1ccc(OC(=O)c2ccc(C(F)(F)C(F)(F)C(F)(C(F)(F)F)C(F)(F)F)cc2)cc1 [Example 18] | 57-58 °C |
| Cc1ccc(OC(=O)c2ccc(C(F)(F)C(F)(F)C(F)(F)C(F)(F)C(F)(F)C(F)(F)C(F)(F)C(F)(F)F)cc2)cc1 [Example 17] | 111-112 °C |
| O=C(Oc1ccc(C(F)(F)F)cc1)c1ccc(C(F)(F)C(F)(F)C(F)(C(F)(F)F)C(F)(F)F)cc1 [Example 19] | 67.5-68.7 °C |
| CCCCCCc1ccc(C(=O)Oc2ccc(C(F)(F)F)cc2)cc1 [Example 3, p'-trifluoromethylphenyl p-n-hexylbenzoate] | 58.8 °C |

The remaining lines, values ahead:

| Temperature (MR) Range of liquid crystal | SMILES |
| --- | --- |
| 66.8 °C | CCCCCc1ccc(C(=O)Oc2ccc(C(F)(F)F)cc2)cc1 [Example 2, p'-trifluoromethylphenyl p-n-pentylbenzoate] |
| 61.0 °C | CCCCCCCc1ccc(C(=O)Oc2ccc(C(F)(F)F)cc2)cc1 [Example 4, p'-trifluoromethylphenyl p-n-heptylbenzoate] |
| 67.8 °C | CCCCc1ccc(C(=O)Oc2ccc(C(F)(F)F)cc2)cc1 [Example 1, p'-trifluoromethylphenyl p-n-butylbenzoate] |
| 58.5 °C | CCCCCCCCc1ccc(C(=O)Oc2ccc(C(F)(F)F)cc2)cc1 [Example 5, p'-trifluoromethylphenyl p-n-octylbenzoate] |
| 93.4 °C | CCCCOc1ccc(C(=O)Oc2ccc(C(F)(F)F)cc2)cc1 [C4 H9 O / CF3] |
| 78.5 °C | CCCCCOc1ccc(C(=O)Oc2ccc(C(F)(F)F)cc2)cc1 [Example 7, p'-trifluoromethylphenyl p-n-pentyloxybenzoate] |
